The source of these data is US20100158863A1, “TRIAZOLOANILINOPYRIMIDINE DERIVATIVES FOR USE AS ANTIVIRAL AGENTS” (ARROW THERAPEUTICS LIMITED, priority 2006, published 2010).

Where two headings read alike, the source gives them in different places.

As a reminder, the IC50 is the concentration at which inhibition is half-maximal.

The test system of one series is HCV replicon 1b (Huh-9B). The experiment in a line: HCV replicon activity, luciferase detection on the replicon plate. The format is cell-based, HCV genotype 1b. As to conditions: Huh-9B replicon cells, luciferase signal. An excerpt:
1b replicon (Huh.7) described in Science 285, 110-113. • Huh-9B: liver cell line with persistent bicistronic HCV genotype 1b coding sequence: [I3891ucubineo—3-3′_ET] includes firefly luciferase-ubiquitin-neomycin phosphotransferase fusion protein and EMCV-IRES driven non-structural HCV (NS3 to NS5B) coding sequence including cell culture adaptive mutations E1202G, […] and K1846T (Lohmann et al, 2001).
This assay is set up using all 96 wells of flat-bottomed 96-well plates. Plates are set up one day before addition of compounds. The assay then runs for 4 days with ELISA development taking place on the 5th day.
Exponentially growing Huh-9B monolayers are washed with sterile PBS to remove serum and treated with trypsin to detach cells from the flask.
(§1) Cells are suspended in growth media and counted using a haemocytometer. Duplicate 96 well plates are seeded with Huh-9B at a density of 10^4 cells/well in a total volume of 100 μl/well of growth medium without antibiotics as depicted below.
(§2) One of the plates is an opaque white 96-well plate used for IC50 determination based on the luciferase signal (referred as replicon plate), the other one is a clear 96-well plate used for a parallel determination of drug toxicity by methylene blue staining (referred as tox plate). Wells G12 and H12 of the tox plate are left without cells to use as buffer alone background reading.
Plates are then incubated at 37° C. in a 5% CO2 environment for 24 h to obtain a 90% confluent cell monolayer.
(§3) Doubling dilutions of each compound are generated in a separate 96 high volume capacity round bottom plate to twice their initial concentration in the assay using growth medium without antibiotics.
Five compounds (C1 to C5) are tested on each assay plate as illustrated below plus a control compound that is also included in each plate.
(§4) Compounds are tested across an 8 point doubling dilution series. The initial dilution of each compound to be tested is 25 μM and 12.5 μM for the control compound.
DMSO only wells (A1 and A2) at 1% provide the signal corresponding to maximal (100%) luciferase detection. […] The signal from the DMSO wells at 1% (maximal signal) constitutes the assay window.
(§5) For each compound dilution on the 2×96-well dilution plate 100 μl are transferred using a multichannel pipette onto the replicon and tox plates mirror wells which contain […] of medium to obtain the desired final concentration.
Media is tapped out from wells into Virkon and plates are washed once in warm PBS and tapped dry gently.
For each well 20 μl of lysis buffer is added by multichannel pipette. Lysates are stable at this point for several hours.
Luciferase assay buffer is placed it in the luminometer (Lmax, Molecular Devices).
The M injector is primed with 4×300 μl of luciferase assay buffer. The plate to be analyzed is placed in the luminometer and […] of luciferase assay buffer injected automatically into one well followed by 4 seconds integration read out.
After one second delay a second well is injected with 100 μl of luciferase assay buffer followed by 4 seconds integration read out and so forth until all 96 wells are analyzed.
Once the reading is finished the luminometer injection system is washed with deionised water.
The data is acquired using the SOFTmax for Lmax Pro software package.
(§6) SOFTmax data files are exported as Excel or text files. A standard four parameters non-linear regression analysis of the data obtained from each compound is then used to calculate the IC50.
(§7) In the above analysis all replicate wells are meaned. The % of control is then calculated for each concentration point as a percentage of the DMSO control wells.
(In antiviral work, replicon cells carry a viral genome segment that copies itself.)

For another series, the system named is Huh-9B. The experiment in a line: Toxicity determination on the tox plate by methylene blue staining. Format: cell-based. As to conditions: Huh-9B cells, parallel tox plate. As to the method:
as §1, §2, §3, §4, §5
Media is tapped out from wells into Virkon and plates tapped dry gently. To each well 100 μl of 0.5% solution of methylene blue in 50% methanol is added to all wells including blanks (G12 and H12). Plates are left at RT for a minimum of 1 h. Plates are then rinsed gently by immersing in a plastic box with water, tapped dry gently and left open until they are fully dry. Dye is solubilized adding 100 μl of 1% lauroylsarcosine to each well and shaking for 1 h at 37° C. Plates are read on the SpectraMax spectrophotometer at 620 nm wavelength using the SOFTmax Pro software package.
as §6, §7

The next series concerns HCV replicon 1b. Briefly: ELISA, combined effect of HCV replication inhibitor with interferon αA. The format is cell-based. As to conditions: for IC50: Hepatitis C virus. An excerpt: ELISA Protocol as in Example 38
The fractional inhibitory concentratin (FIC) can be used to identify a synergistic interaction.

With `COc1ccc(-c2ccc3ncnc(Nc4ccc(-n5cncn5)cc4)c3c2)cc1OC` [Example 10, [6-(3,4-Dimethoxy-phenyl)-quinazolin-4-yl]-(4-[1,2,4]triazol-1-yl-phenyl)-amine], the IC50 with HCV replicon 1b (Huh-9B) (Hepatitis C virus) is less than 5 µM; with HCV replicon 1b (compound alone, read-out: ELISA IC50 against HCV replicon 1b) it was 0.2 µM; in the series on HCV replicon 1b (read-out: IC50 of compound in combination), no more than 0.067 µM. Further, the “Replicon TD50” value with Huh-9B is reported as “* (* <25 μM)”. Also, the “fractional inhibitory concentration (FIC)” value in the series with HCV replicon 1b (combination with interferon αA, FIC <0.5 = synergy) is listed as 0.336.
In the series on HCV replicon 1b (Huh-9B) (Hepatitis C virus), `Fc1cc(-c2ccc3ncnc(Nc4ccc(-n5cncn5)cc4)c3c2)ccc1OCCCN1CCOCC1` [Example 26, {6-[3-fluoro-4-(3-morpholin-4-yl-propoxy)-phenyl]-quinazoline-4-yl}-(4-[1,2,4]triazole-1-yl-phenyl)amine] returned an IC50 of less than 5 µM. Besides, the “Replicon TD50” value in the series on Huh-9B is given as “* (* <25 μM)”.
Regarding `COc1ccc(-c2ccc3ncnc(Nc4ccc(-n5cncn5)cc4C)c3c2)cc1OC` [Example 27, [6-(3,4-Dimethoxy-phenyl)-quinazolin-4-yl]-(2-methyl-4-[1,2,4]triazol-1-yl-phenyl)-amine], in the series on HCV replicon 1b (Huh-9B) (Hepatitis C virus), the IC50 is less than 5 µM. Besides, in the series on Huh-9B, the “Replicon TD50” value is “* (* <25 μM)”.
As to `COc1ccc(-c2ccc3ncnc(Nc4ccc(-n5nc(C(=O)O)nc5C)cc4)c3c2)cc1OC` [Example 29, 1-(4-{6-[3,4-Dimethoxy-phenyl]-quinazolin-4-ylamino}-phenyl)-5-methyl-1H-[1,2,4]triazole-3-carboxylic acid], the IC50 in the series with HCV replicon 1b (Huh-9B) (Hepatitis C virus) was in the range of 5 to 20 µM. For the same compound, the “Replicon TD50” value in the series on Huh-9B was “** (** >25 μM)”.
The compound `COc1ccc(-c2ccc3ncnc(Nc4ccc(-n5nc(C(=O)N(C)C)nc5C)cc4)c3c2)cc1OC` [Example 30, 1-{-4-[6-(3,4-Dimethoxy-phenyl)-quinazolin-4-ylamino]-phenyl}-5-methyl-1H-[1,2,4]triazole-3-carboxylic acid dimethylamide] gave an IC50 in the series with HCV replicon 1b (Huh-9B) (Hepatitis C virus) of less than 5 µM. For the same compound, in the series on Huh-9B, the “Replicon TD50” value was “* (* <25 μM)”.
For the compound `CNC(=O)c1nc(C)n(-c2ccc(Nc3ncnc4ccc(-c5ccc(OCCOC)c(F)c5)cc34)cc2)n1` [Example 31, 1-(4-{6-[3-Fluoro-4-(2-methoxy-ethoxy)-phenyl]-quinazolin-4-ylamino}-phenyl)-5-methyl-1H-[1,2,4]triazole-3-carboxylic acid methylamide], the IC50 in the series with HCV replicon 1b (Huh-9B) (Hepatitis C virus) is less than 5 µM. Besides, the “Replicon TD50” value in the series with Huh-9B was “** (** >25 μM)”.
Take `COCCOc1ccc(-c2ccc3ncnc(Nc4ccc(-n5nc(C(=O)N(C)C)nc5C)cc4)c3c2)cc1F` [Example 32, 1-(4-{6-[3-Fluoro-4-(2-methoxy-ethoxy)-phenyl]-quinazolin-4-ylamino}-phenyl)-5-methyl-1H-[1,2,4]triazole-3-carboxylic acid dimethylamide]: in the series on HCV replicon 1b (Huh-9B) (Hepatitis C virus), the IC50 is less than 5 µM. The “Replicon TD50” value in the series on Huh-9B is listed as “* (* <25 μM)”.
On to `Cc1cc(-n2cncn2)ccc1Nc1ncnc2ccc(Br)cc12` [Example 33], for which the IC50 on HCV replicon 1b (Huh-9B) is less than 5 µM. In addition, the “Replicon TD50” value in the series on Huh-9B is “** (** >25 μM)”.
The compound `COCCOc1ccc(-c2ccc3ncnc(Nc4ccc(-n5nc(C(=O)N6CCN(C)CC6)nc5C)cc4)c3c2)cc1F` [Example 34, [1-(4-{6-[3-Fluoro-4-(2-methoxy-ethoxy)-phenyl]-quinazolin-4-ylamino}-phenyl)-5-methyl-1H-[1,2,4]triazole-3-yl]-(4-methyl-piperazin-1-yl)methanone] yielded an IC50 in the series with HCV replicon 1b (Huh-9B) (Hepatitis C virus) of less than 5 µM. In addition, the “Replicon TD50” value with Huh-9B is listed as “** (** >25 μM)”.
